From paper PMC11882969 (Nature Communications, 2025)
Where “and” joins values, the source holds several entries; their conditions need not be identical. Equal entries are not always repeated.

What was measured:
CB1 (rCB1) = CB1 (rCB1) (Rattus norvegicus, UniProt P20272); experiment: Single-point radioligand displacement screen; assay type: binding; settings: for % 1H-CP-55,940 displacement (mean) from single point screen: 10 µM, 1 µM or 300 nM by cell colour (not visible); for rep1_displacement / rep2_displacement / rep3_displacement: Figure 1c source data; for rep1_displacement: replicate 1; for rep2_displacement: replicate 2; for rep3_displacement: replicate 3
hCB1 = hCB1 (Homo sapiens, UniProt P21554); experiment: bioSensAll ebBRET signaling profiling, hCB1; assay type: cell-based; set-up: host or cells: HEK293SL cells, transient PEI transfection; settings: for Gi1 hCB1 response: Gi1 biosensor; for Gi1 hCB1 / GoB hCB1: single replicate values, FigS6a
Sequence of hCB1 (P21554 whole entry): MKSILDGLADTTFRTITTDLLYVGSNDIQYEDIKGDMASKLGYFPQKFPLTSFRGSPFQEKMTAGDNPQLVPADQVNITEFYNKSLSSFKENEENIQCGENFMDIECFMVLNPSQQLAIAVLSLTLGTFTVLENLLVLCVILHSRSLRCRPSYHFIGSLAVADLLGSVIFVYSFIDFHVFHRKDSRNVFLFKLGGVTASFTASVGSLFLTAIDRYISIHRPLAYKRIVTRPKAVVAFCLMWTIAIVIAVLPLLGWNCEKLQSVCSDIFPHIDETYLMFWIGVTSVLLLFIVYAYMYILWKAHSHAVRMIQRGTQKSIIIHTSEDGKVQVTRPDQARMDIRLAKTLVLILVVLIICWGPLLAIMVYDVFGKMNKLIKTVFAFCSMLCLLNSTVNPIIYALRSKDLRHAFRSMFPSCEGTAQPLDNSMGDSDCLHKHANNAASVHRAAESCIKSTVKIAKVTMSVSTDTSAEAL

Sequence of CB1 (rCB1) (P20272 whole entry): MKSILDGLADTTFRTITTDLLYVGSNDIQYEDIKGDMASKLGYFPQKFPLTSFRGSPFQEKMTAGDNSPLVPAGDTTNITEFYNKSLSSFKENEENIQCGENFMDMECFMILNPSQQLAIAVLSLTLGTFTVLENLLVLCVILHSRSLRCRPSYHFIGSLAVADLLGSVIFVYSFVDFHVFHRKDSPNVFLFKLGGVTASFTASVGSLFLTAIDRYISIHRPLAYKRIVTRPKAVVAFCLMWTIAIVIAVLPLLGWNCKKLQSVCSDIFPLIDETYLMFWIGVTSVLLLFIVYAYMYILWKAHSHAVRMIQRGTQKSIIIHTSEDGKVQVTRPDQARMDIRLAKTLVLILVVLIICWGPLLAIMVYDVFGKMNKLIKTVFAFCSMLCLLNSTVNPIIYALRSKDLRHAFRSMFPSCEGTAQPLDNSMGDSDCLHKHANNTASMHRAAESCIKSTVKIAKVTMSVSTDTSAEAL

c1ccc(-c2nc(C3CC3)sc2-c2nnc(-c3ccc4c(c3)OCO4)o2)cc1 [7019_32]
% 1H-CP-55,940 displacement (mean) from single point screen (CB1 (rCB1)): 39.89%

COC(=O)c1cc(C(=O)N2CCc3ccc(Cl)cc3C2)cc([N+](=O)[O-])c1 [compound 25719]
% 1H-CP-55,940 displacement (mean) from single point screen (CB1 (rCB1)): 24.96%
rep1_displacement (CB1 (rCB1)): 30.1
rep2_displacement (CB1 (rCB1)): 24.6
rep3_displacement (CB1 (rCB1)): 20.2

O=c1c2cnn(-c3ccccc3)c2nnn1Cc1cc(Cl)ccc1Cl [compound 59552]
% 1H-CP-55,940 displacement (mean) from single point screen (CB1 (rCB1)): 38.03%
rep1_displacement (CB1 (rCB1)): 36.6
rep2_displacement (CB1 (rCB1)): 38.4
rep3_displacement (CB1 (rCB1)): 39.1

O=C1Cc2cc(-c3csc(Cc4ccc(F)cc4)n3)cc3c2N1CCC3 [‘1038]
% 1H-CP-55,940 displacement (mean) from single point screen (CB1 (rCB1)): 53.57%
rep1_displacement (CB1 (rCB1)): 56.9
rep2_displacement (CB1 (rCB1)): 51.4
rep3_displacement (CB1 (rCB1)): 52.5
% radioligand displacement [S.D] (CB1 (rCB1); single point at 10 µM, three replicates): 53.6% [2.91]

Cn1nc(-c2nnc(C(C)(C)Oc3ccc(C#N)cc3)o2)c2ccccc2c1=O [0450_23]
% 1H-CP-55,940 displacement (mean) from single point screen (CB1 (rCB1)): -19.18%

COC(=O)C(NC(=O)c1cc(-c2cccc(F)c2)c2ccccc2c1)c1cccs1 (stereo not drawn) [1486_17]
% 1H-CP-55,940 displacement (mean) from single point screen (CB1 (rCB1)): 8.92%

COC(=O)CC(NC(=O)c1cc(C)n(-c2ccc(OC)cc2)n1)c1cccs1 (stereo not drawn) [compound 90711]
% 1H-CP-55,940 displacement (mean) from single point screen (CB1 (rCB1)): 7.24%

N#Cc1cccc(OCc2ccoc2C(=O)OCC2CSc3ccccc3O2)c1 (stereo not drawn) [compound 35424]
% 1H-CP-55,940 displacement (mean) from single point screen (CB1 (rCB1)): 60.22%

COCCOc1cc(C(=O)N2CCCC(CC3CCOC3)C2)nc2ccccc12 (stereo not drawn) [compound 49667]
% 1H-CP-55,940 displacement (mean) from single point screen (CB1 (rCB1)): 4.27%
rep1_displacement (CB1 (rCB1)): 10.3
rep2_displacement (CB1 (rCB1)): 4.1
rep3_displacement (CB1 (rCB1)): -1.6

CCOC(=O)CCC(OC(=O)c1nc(C)n(-c2ccccc2)n1)c1ccccc1 (stereo not drawn) [compound 11070]
% 1H-CP-55,940 displacement (mean) from single point screen (CB1 (rCB1)): 34.00%
rep1_displacement (CB1 (rCB1)): 33.8
rep2_displacement (CB1 (rCB1)): 28.7
rep3_displacement (CB1 (rCB1)): 39.6

Cc1cc(C(=O)N2CC3(CCC3)C2C2CCOCC2)nn1-c1cccc(C(F)(F)F)c1 (stereo not drawn) [10_19]
% 1H-CP-55,940 displacement (mean) from single point screen (CB1 (rCB1)): 82.61%

CC(Oc1ccccc1)c1noc(-c2ccc(=O)n(-c3ccc(F)cc3)n2)n1 (stereo not drawn) [compound 34765]
% 1H-CP-55,940 displacement (mean) from single point screen (CB1 (rCB1)): 18.38%
rep1_displacement (CB1 (rCB1)): 25
rep2_displacement (CB1 (rCB1)): 13.3
rep3_displacement (CB1 (rCB1)): 16.8

Fc1ccc(C(F)(F)c2noc(-c3cnnn3-c3cccc(F)c3)n2)cc1 [compound 9217]
% 1H-CP-55,940 displacement (mean) from single point screen (CB1 (rCB1)): 46.71%
rep1_displacement (CB1 (rCB1)): 49.7
rep2_displacement (CB1 (rCB1)): 46.4
rep3_displacement (CB1 (rCB1)): 44.1

Cc1c(C(=O)OCC2CSc3ccccc3O2)cnn1Cc1ccc2ccccc2c1 (stereo not drawn) [7800_24]
% 1H-CP-55,940 displacement (mean) from single point screen (CB1 (rCB1)): 50.03%

O=C(OCc1nc2ccccc2o1)c1cnn(Cc2ccccc2Cl)c1 [compound 3652]
% 1H-CP-55,940 displacement (mean) from single point screen (CB1 (rCB1)): 32.00%

CC(C)(C)c1c(C(=O)OCC2CSc3ccccc3O2)cnn1Cc1ccccc1 (stereo not drawn) [7800_22]
% 1H-CP-55,940 displacement (mean) from single point screen (CB1 (rCB1)): 73.02%

O=C1C(=O)N(C23CC4CC(CC(C4)C2)C3)C(=O)N1CC1CCC(C(F)(F)F)CC1 (stereo not drawn) [compound 8441]
% 1H-CP-55,940 displacement (mean) from single point screen (CB1 (rCB1)): 47.91%
rep1_displacement (CB1 (rCB1)): 51.8
rep2_displacement (CB1 (rCB1)): 42.6
rep3_displacement (CB1 (rCB1)): 49.3

Cc1cc(C(=O)NC(c2cccs2)C(C)(C)CO)nn1-c1cccc(Cl)c1 (stereo not drawn) [compound 78220]
% 1H-CP-55,940 displacement (mean) from single point screen (CB1 (rCB1)): 5.56%

COC(=O)C(NC(=O)c1cc(C)n(-c2ccccc2)n1)c1cccs1 (stereo not drawn) [compound 59643]
% 1H-CP-55,940 displacement (mean) from single point screen (CB1 (rCB1)): 4.63%

Cc1cc(C(=O)NC(c2ccc(Cl)cc2)c2ccn(C)n2)nn1-c1cccc(F)c1 (stereo not drawn) [compound 17429]
% 1H-CP-55,940 displacement (mean) from single point screen (CB1 (rCB1)): 23.12%

COc1cccc(C(NC(=O)c2cc(C)n(-c3cccc(C(F)(F)F)c3)n2)c2ccco2)c1 (stereo not drawn) [‘1087]
Gi1 hCB1 response (hCB1; Log [Compound] (M) -4.22186): 111.515
Gi1 hCB1 response (hCB1; Log [Compound] (M) -4.63927): -38.2838
Gi1 hCB1 response (hCB1; Log [Compound] (M) -5.05788): -49.9669
Gi1 hCB1 response (hCB1; Log [Compound] (M) -5.47381): 11.0449
Gi1 hCB1 response (hCB1; Log [Compound] (M) -5.89285): -12.478
Gi1 hCB1 response (hCB1; Log [Compound] (M) -6.31878): -17.0885
Gi1 hCB1 response (hCB1; Log [Compound] (M) -6.72585): -9.994
Gi1 hCB1 response (hCB1; Log [Compound] (M) -7.14267): -10.3741
Gi1 hCB1 response (hCB1; Log [Compound] (M) -7.55284): 10.754
Gi1 hCB1 response (hCB1; Log [Compound] (M) -8): -2.496
Gi1 hCB1 response (hCB1; Log [Compound] (M) -8.22186): 59.7022
Gi1 hCB1 response (hCB1; Log [Compound] (M) -8.39794): 12.6788
Gi1 hCB1 response (hCB1; Log [Compound] (M) -8.68787): -1.377
Gi1 hCB1 response (hCB1; Log [Compound] (M) -9.15521): -24.5192
Gi1 hCB1 response (hCB1; Log [Compound] (M) -9.61989): 86.3361
Gi1 hCB1 response (hCB1; Log [Compound] (M) -10.0969): -14.3804
Gi1 hCB1 response (hCB1; Log [Compound] (M) -10.5529): -6.726
Gi1 hCB1 response (hCB1; Log [Compound] (M) -11.0177): 6.211
Gi1 hCB1 response (hCB1; Log [Compound] (M) -11.4949): 9.702
Gi1 hCB1 response (hCB1; Log [Compound] (M) -11.9208): -11.0679
Gi1 hCB1 response (hCB1; Log [Compound] (M) -12.3979): -4.555
Gi1 hCB1 response (hCB1; Log [Compound] (M) -12.8861): -5.652
Gi1 hCB1 response (hCB1; Log [Compound] (M) -13, individual replicate values): -4.331 and 29.5096
Gi1 hCB1 (hCB1; Log [Compound] (M) -4.22186): -6.833
GoB hCB1 (hCB1; Log [Compound] (M) -4.22186): -8.4986
Gi1 hCB1 (hCB1; Log [Compound] (M) -4.63927): -6.864
GoB hCB1 (hCB1; Log [Compound] (M) -4.63927): -10.0272
Gi1 hCB1 (hCB1; Log [Compound] (M) -5.05788): -7.357
GoB hCB1 (hCB1; Log [Compound] (M) -5.05788): -7.545
Gi1 hCB1 (hCB1; Log [Compound] (M) -5.47381): -6.895
GoB hCB1 (hCB1; Log [Compound] (M) -5.47381): -9.02
Gi1 hCB1 (hCB1; Log [Compound] (M) -5.89285): -4.166
GoB hCB1 (hCB1; Log [Compound] (M) -5.89285): -5.891
Gi1 hCB1 (hCB1; Log [Compound] (M) -6.31878): -2.0693
GoB hCB1 (hCB1; Log [Compound] (M) -6.31878): -3.409
Gi1 hCB1 (hCB1; Log [Compound] (M) -6.72585): -1.1443
GoB hCB1 (hCB1; Log [Compound] (M) -6.72585): -0.5859
Gi1 hCB1 (hCB1; Log [Compound] (M) -7.14267): 2.34
GoB hCB1 (hCB1; Log [Compound] (M) -7.14267): -0.6579
Gi1 hCB1 (hCB1; Log [Compound] (M) -7.55284): 3.064
GoB hCB1 (hCB1; Log [Compound] (M) -7.55284): 2.687
Gi1 hCB1 (hCB1; Log [Compound] (M) -8): 2.926
GoB hCB1 (hCB1; Log [Compound] (M) -8): 1.8778
Gi1 hCB1 (hCB1; Log [Compound] (M) -8.22186): 2.463
GoB hCB1 (hCB1; Log [Compound] (M) -8.22186): -2.043
Gi1 hCB1 (hCB1; Log [Compound] (M) -8.39794): -1.175
GoB hCB1 (hCB1; Log [Compound] (M) -8.39794): 1.572
Gi1 hCB1 (hCB1; Log [Compound] (M) -8.68787): 1.6
GoB hCB1 (hCB1; Log [Compound] (M) -8.68787): -4.093
Gi1 hCB1 (hCB1; Log [Compound] (M) -9.15521): 2.463
GoB hCB1 (hCB1; Log [Compound] (M) -9.15521): -0.01046
Gi1 hCB1 (hCB1; Log [Compound] (M) -9.61989): 1.8311
GoB hCB1 (hCB1; Log [Compound] (M) -9.61989): 0.3672
Gi1 hCB1 (hCB1; Log [Compound] (M) -10.0969): 1.353
GoB hCB1 (hCB1; Log [Compound] (M) -10.0969): 4.054
Gi1 hCB1 (hCB1; Log [Compound] (M) -10.5529): 3.666
GoB hCB1 (hCB1; Log [Compound] (M) -10.5529): 3.3884
Gi1 hCB1 (hCB1; Log [Compound] (M) -11.0177): 2.525
GoB hCB1 (hCB1; Log [Compound] (M) -11.0177): 3.856
Gi1 hCB1 (hCB1; Log [Compound] (M) -11.4949): 4.128
GoB hCB1 (hCB1; Log [Compound] (M) -11.4949): 2.507
Gi1 hCB1 (hCB1; Log [Compound] (M) -11.9208): 3.265
GoB hCB1 (hCB1; Log [Compound] (M) -11.9208): 1.033
Gi1 hCB1 (hCB1; Log [Compound] (M) -12.3979): 2.386
GoB hCB1 (hCB1; Log [Compound] (M) -12.3979): 3.442
Gi1 hCB1 (hCB1; Log [Compound] (M) -12.8861): 2.001
GoB hCB1 (hCB1; Log [Compound] (M) -12.8861): 2.363
Gi1 hCB1 (hCB1; Log [Compound] (M) -13): 2.402 and 0.3203
GoB hCB1 (hCB1; Log [Compound] (M) -13): 4.845 and 3.406
